Experimental findings from ChEMBL document CHEMBL1201862, “PubChem BioAssay data set” (2004) are described below.

Assay in all cases: growth of human tumour cells (NCI), 48 h
Assay [1] deals with MCF7.
Assay [2] relates to HCC 2998.
The test system of assay [3] is NCI-H460.
Assay [4] deals with MDA-MB-231.
Assay [5] concerns A498.
Assay [6] relates to SK-MEL-5.
Assay [7] concerns HCT-15.
The subject of assay [8] is IGROV-1.
Assay [9] has as its system SF-539.
For assay [10], the system named is MDA-N.
Assay [11] deals with K562.
Assay [12] has as its system UO-31.
The test system of assay [13] is NCI/ADR-RES.
Assay [14] deals with BT-549.
For assay [15], the system named is MDA-MB-435.
In assay [16] the test system is SF-295.
Assay [17] concerns PC-3.
In assay [18] the test system is NCI-H226.
Assay [19] relates to HCT-116.
In assay [20] the test system is SK-MEL-28.

SMILES strings stand for the structures.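 How tested: cells in 96-well plates exposed to compound for 48 hours at five concentrations. The concentration for 50% growth inhibition is given as GI50.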 Activity calls are given as the source filed them. No stated cut-off is given here; in the data, active = GI50 up to about 1.1 µM and inactive = higher. Square brackets hold non-standard residues; d marks the D form. Peptide text beside a SMILES is read from it. * marks the point of attachment. ξ: configuration not given here. NMeN = CN[C@@H](CC(N)=O)C(=O)O; NMeV = CN[C@H](C(=O)O)C(C)C; ξNMeV = CNC(C(=O)O)C(C)C; Boc = CC(C)(C)OC(=O)*; ξNMeA = CNC(C)C(=O)O

As to `O=[N+]([O-])c1ccc(/C(=C\c2ccccc2)Cn2ccnc2)cc1`, the GI50 in assay [1] is 19.9 µM (inactive); in [2] it was 68.7 µM (inactive); in assay [3], 32 µM (inactive); in assay [4], 13.1 µM (inactive); in assay [5] it was 20.9 µM (inactive); in assay [6] it was 29.9 µM (inactive). The GI50 is 30.2 µM in [7]; 24.6 µM (inactive) in [8]; 43.4 µM (inactive) in assay [9]; 25.4 µM (inactive) in assay [10]; 17.8 µM (inactive) in [11]; 13.6 µM (inactive) in assay [12]. Besides, the GI50 in assay [13] was 21.1 µM (inactive); in assay [14], 25.6 µM (inactive); in assay [15], 34.4 µM (inactive); in [16] it was 32.7 µM (inactive); in assay [17], 24.8 µM (inactive); in assay [18] it was 32.4 µM (inactive). The GI50 was 23.6 µM (inactive) in [19] and 59.6 µM (inactive) in assay [20].
For `COC(=O)C(C)N(C)C(=O)[C@H](CC(N)=O)N(C)C(=O)[C@@H]1CCCN1C(=O)[C@H](C(C)C)N(C)C(=O)C(C(C)C)N(C)C(=O)[C@@H](NC(=O)OC(C)(C)C)C(C)C` (stereo not given in full) (Boc-V[ξNMeV][NMeV]P[NMeN][ξNMeA]-OMe), the GI50 in [1] was > 50 µM (inactive); in [2], > 50 µM (inactive); in assay [3] it was > 50 µM (inactive); in [4], > 50 µM (inactive); in assay [5], > 50 µM (inactive); in assay [6], 31.7 µM (inactive). Moreover, the GI50 in [7] was more than 100 µM; in assay [8] it was > 50 µM (inactive); in assay [9], > 50 µM (inactive); in assay [10] it was > 50 µM (inactive); in [11], 43.4 µM (inactive); in [12], 24.7 µM (inactive). Moreover, the GI50 is > 50 µM (inactive) in assay [13]; > 50 µM (inactive) in [14]; > 50 µM (inactive) in [15]; > 50 µM (inactive) in assay [16]; 11.4 µM (inactive) in assay [17]; > 50 µM (inactive) in assay [18]. Further, the GI50 in [19] is 30.3 µM (inactive); in assay [20], > 50 µM (inactive).
